Legend:
oral mucosal cells = assay: Cell irritating effect on oral mucosal cells (Janus Green B staining, optical microscope); assay type: cell-based; conditions: aqueous solution
Description: Aqueous solutions of different concentrations of sodium […] (SLS) and sodium methyl cocoyl taurate (SMCT) were prepared. The solutions were used to challenge oral mucosal cells. Treated cells were stained with Janus Green B and morphological changes were observed using an optical microscope to determine whether or not the cells had become irritated or remained intact. Cells were identified as normal if the cells were in tact, the cell wall was smooth, the color of the cell core was clear/dark, and if organelles could be identified. Cells were identified as irritated if the cells could not be clearly defined with a blurring of the cell wall, if there was crimping of the cell, if the color of the cell core and plasma is lighter than observed for an intact cell, and if organelles could not be identified. […]

[1] = Antioxidant activity, LPO-CC kit (Kamiya Biomedical Company); assay type: biochemical; conditions: agent at 1% in ethanol
Description: The antioxidant activity of rutin was tested using an LPO-CC kit (Kamiya Biomedical Company), and compared to that of vitamin E. (The agents were tested in an amount of 1% in ethanol). The lower the optical density, the better the antioxidant capacity. The higher the percentage cumeme hydroperoxide reduction, the better the antioxidant capacity. The antioxidant efficacy of the formulations was also tested using the methods described in Example 5. The results are illustrated in Table 9a and 9b.

| Substance | Cell irritating effects of aqueous surfactant solutions: Results (oral mucosal cells; 0.48 % active weight surfactant) | Cell irritating effects of aqueous surfactant solutions: Results (oral mucosal cells; 1.40 % active weight surfactant) | Cell irritating effects of aqueous surfactant solutions: Results (oral mucosal cells; 1.71 % active weight surfactant) | Cell irritating effects of aqueous surfactant solutions: Results (oral mucosal cells; 2.20 % active weight surfactant) | % reduction of cumeme hydroperoxide ([1]; higher = better antioxidant capacity) [%] | Optical Density at 675 nm ([1]; lower optical density = better antioxidant capacity) |
| --- | --- | --- | --- | --- | --- | --- |
| sodium lauryl ether sulfate [SLS] | No cell irritation | Cells irritated | Cells irritated | Cells irritated |  |  |
| vitamin E |  |  |  |  | 50.4719 | 0.2204 |

Source: patent publication US20170348213A1, “Oral Care Composition” (Colgate-Palmolive Company, priority 2014, published 2017)
